Columns and labels:
[1] = Aqueous solubility of DNQ in PBS by LC-MS; format: physicochemical; details: pH 7.4 phosphate buffered saline, 30 min sonication, filtered
Procedure: The aqueous solubility of DNQ at pH 7.4 in phosphate buffered saline (PBS) was measured by LC-MS. DNQ was sonicated for 30 minutes in PBS then undissolved solid was removed by filtration through a 0.45 μm syringe filter and the filtrate was analyzed by LC-MS (λ=275 nm, ESI-TOF in negative mode). The optimal sonication time was determined by sonicating DNQ for 1, 5, 10, and 30 minutes. While the concentration of DNQ in solution increased substantially between 1, 5, and 10 minutes, there was only a minor difference between 10 and 30 minutes. During the 30-minute sonication the water bath warmed to 45° C. (samples were cooled to room temperature before filtration). A calibration curve was generated from 1-100 μM by dissolving DNQ in methanol to a concentration of 500 μM and making dilutions of this stock in 80:20 water:methanol. The calibration curve (measure by UV absorbance) was linear over this range; 1 μM was approximately the limit of detection. […] The solution was very pale yellow.

[2] = Formulation of DNQ compounds in HPβCD; format: physicochemical
From the text: This same neutral solution of DNQ in HPβCD cannot be made directly (i.e. without pH adjustment). […] The only proton on DNQ that might reasonably be deprotonated in aqueous base is the N—H. […] The protocol for formulating DNQ compounds in HPβCD is as follows: the DNQ compound is slurried in a 20% solution of HPβCD in pH 7.4 PBS and the pH is then increased by the addition of 10 M NaOH to induce dissolution of the DNQ compound. The pH is returned to pH 7.5-8.0 by the careful addition of 1 M HCl. A 3.3 mM solution of the DNQ compound can be made by this method which is stable at least 24 hours. This represents a 30-fold increase in solubility of DNQ over PBS alone. The inventors initially chose a 20% HPβCD solution.

[3] = molecular target: NQO1 (Homo sapiens, UniProt P15559); assay: NQO1-catalyzed futile redox cycle / processing in vitro; format: biochemical; details: compared with β-lap
Chain of NQO1 (P15559 whole entry, species assumed): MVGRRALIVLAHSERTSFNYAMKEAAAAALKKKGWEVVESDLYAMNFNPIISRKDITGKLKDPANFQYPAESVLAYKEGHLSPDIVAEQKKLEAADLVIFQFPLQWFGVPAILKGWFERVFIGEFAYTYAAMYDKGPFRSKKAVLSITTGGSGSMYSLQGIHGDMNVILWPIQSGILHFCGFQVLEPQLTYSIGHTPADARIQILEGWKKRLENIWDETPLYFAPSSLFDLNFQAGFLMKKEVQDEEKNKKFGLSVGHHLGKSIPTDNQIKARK

[4] = system: NQO1 positive tumor cell lines MC38, TC-1 and Ag104Ld; format: cell-based; details: MC38 and B16 NQO1 cells, β-lap 3 hr, catalase 1000 U/ml, survival 48 hr later
Procedure: (FIG. 1A) NQO1 positive tumor cell lines MC38, TC-1 and Ag104Ld and NQO1 negative cell lines Panc02 and B16 grown in 48-well plates were treated with β-lap (0-8 μM) for a 3 hr followed by washing and replacing medium. Cell viability was determined by Sulforhodamine B (SRB) Assay 4 days later. […] (FIG. 1C) MC38 cells with CRISPR-based NQO1 Knockout (MC38 NQO1KO #5) planted in 96-well plates were exposed to β-lap for 3 hr and cell survival was assessed 48 hr later. […] (FIG. 1E) MC38 cells were exposed to a lethal dose of β-lap (4 μM) for indicated times, then stained with 7-AAD and Annexin V followed by flow cytometry analysis. […] (FIG. 1H) MC38 and B16 NQO1 #1 cells were exposed to β-lap for a 3 hr. Catalase (1000 U/ml) was added and cell survival was assessed 48 hr later. (FIG. 1I) C57BL/6 mice (n=5/group) were transplanted with MC38 cells and treated with β-lap (0.03 mg, 0.1 mg or 0.3 mg, intratumorally; or 25 mg/kg, i.v.) every other day for four times. […] Tumor growth was monitored twice a week.
(FIG. 8A) NQO1 expression in multiple murine tumor lines was immunoblotted as indicated. […] Drugs were removed and survival assessed 5 days later. (FIG. 8C) Relative H2O2 levels were assessed in various cells treated with β-lap for 3 h at the indicated doses using CellRox-Glo. […] (FIG. 8D) TC-1 cells exposure to β-lap for 12 h, later PARP-1 and Caspase-3 levels were analyzed by western blotting assay. […]
(FIGS. 14A-C) NQO1 cells MC38 (A) and TC-1 (B) and NQO1^− cells B16 (C) were treated for 2 h with various doses of IB-DNQ±DIC (50 μM). Drugs were removed and survival assessed 6 days later. […] (FIGS. 14E-F) Relative NAD^+ (E) or ATP (F) levels were assessed in TC-1 cells exposed to various doses of IB-DNQ for 2 h. […] Comet tail lengths in a.u. were monitored at indicated time; and DSBs quantified by γH2AX foci/nuclei using immunofluorescence at indicated time (FIG. 14H). […]
(FIG. 21A) Viability of murine cell lines following IB-DNQ treatment for 4 h. […] (FIGS. 21D-E) DNA double strand break was assessed via comet assay (FIG. 21D) and γH2AX foci/nuclei immunofluorescence (FIG. 21E). […]

Row | solubility of DNQ in PBS [1] | stability of the HPβCD solution ([2]; 3.3 mM solution in 20% HPβCD) | increase in solubility over PBS alone ([2]; 20% HPβCD) | concentration of solution that can be made in HPβCD ([2]; 20% HPβCD in pH 7.4 PBS, pH raised with NaOH then returned to pH 7.5-8.0) | concentration of solution permitted by 40% HPβCD ([2]; 40% HPβCD, concentration increases linearly with HPβCD) | efficiency of processing by NQO1 in vitro [3] | Compound | effect of H2O2 scavenging on β-lap lethality [4]
1 | 115 µM | at least 24 hours | 30 fold | 3300 µM | 6600 µM | much more efficiently than β-lap | Cc1cc(=O)[nH]c2c1C(=O)c1c(C)cc(=O)n(C)c1C2=O [DNQ, Deoxynyboquinone] | 
2 |  |  |  |  |  |  | Catalase | significantly spared β-lap-mediated lethality

Source: patent US20220160703A1, “TUMOR-SELECTIVE COMBINATION THERAPY” (The Board of Regents of The University of Texas System, priority 2019, published 2022)
